In patent US20190169564A1, “METHODS OF CULTURING MICROORGANISMS IN NON-AXENIC MIXOTROPHIC CONDITIONS” (HELIAE DEVELOPMENT, LLC, priority 2012, published 2019):

Tests used:
contaminating bacteria = assay: Treatment of bacterial contamination in outdoor raceway pond mixotrophic Chlorella culture (flow cytometry); type: cell-based
Experimental: Contamination observation (400×, 1000× oil immersion-phase contrast micrograph and cell cytometry with bacterial dying) was performed every 2 days, including a measurement of bacterial contamination by flow cytometry. For bacterial contamination measurement, to each 1 ml sample, 1 μl BacLight™ Green bacterial stain (Invitrogen, Eugene, Oreg., USA) as added, and samples were incubated at room temperature in the dark for 30 to 60 minutes. After incubation, samples were analyzed on a BD FACSAria™ (BD Biosciences, San Jose, Calif., USA) and populations of bacteria and algae were gated based on BacLight™ fluorescence and chlorophyll autofluoresence.
Chlorella sp. SNL333 was grown in a mixotrophic system in the pond raceway systems described above in Example 4. The area of the raceway photobioreactor was 5.6 m^2 with an operating volume of 568 L at a depth of […]. One unit was mixed with a pump (Reactor 1), and the other via a paddle wheel (Reactor 2). Air was delivered to the paddle wheel system via an air stone. Air was delivered to the pumped reactor via a venturi injection system. […] The nitrate level in the modified BG-11 recipe consisted of 400 mg/L, and was determined via the nitrate consumption rates from previous trials. […]
Referring to FIG. 28, the percentage of bacteria to Chlorella in the mixotrophic cultures was quantified using the procedure discussed in the previous examples. […]

Chlorella sp. SNL333 = assay: Yield of raceway pond mixotrophic Chlorella culture after contamination treatment; type: cell-based
Experimental: Chlorella sp. SNL333 was grown in a mixotrophic system in the pond raceway systems described above in Example 4. The area of the raceway photobioreactor was 5.6 m^2 with an operating volume of 568 L at a depth of 15 cm. One unit was mixed with a pump (Reactor 1), and the other via a paddle wheel (Reactor 2). Air was delivered to the paddle wheel system via an air stone. Air was delivered to the pumped reactor via a venturi injection system. Eductors were used in the pumped reactor to increase water velocity and enhance oxygen transfer of the liquid medium. […] The nitrate level in the modified BG-11 recipe consisted of 400 mg/L, and was determined via the nitrate consumption rates from previous trials.
Nitrate levels were adjusted towards the end of the trial to maintain residual nitrate in the system (400 mg/L). Harvests occurred daily throughout the trials. Harvest consisted of 50% of the culture volume daily, with an 80% harvest occurring on day 7. The total trial lasted 12 days for Reactor 1 and 10 days for Reactor 2.
Treatments to control the bacterial population occurred at the time indicated by the vertical dashed line. Reactor 1 received an ozone treatment, and Reactor 2 received an antibiotic treatment. At 190 hours the make-up water for refilling the system was sterilized by chlorination prior to being added to the culture. […]

Chlorella = assay: Mixotrophic Chlorella culture in bubbled column reactor with pH-auxostat, comparison of organic carbon sources

Experimental for E. coli: 200 ml of bacteria inoculum from a bacteria contaminated photobioreactor was added to 200 ml of BG-11 culture medium. The solution was split in half, with the first solution receiving 6.84 g of glucose and the second solution receiving 5 g of sodium acetate. The pH and optical density of both solutions was taken. The two solutions were each split into three groups of three separate 100 ml volumes, for a control, 10 mMH2O2, and 20 mMH2O2 treatments. Each volume had 2.092 g of MOPS buffer (Sigma Chemical St. Louis, Mo.), and then placed in an incubator set at 27° C., 96 rpm, and 100 μmol/m^2 s of LED light. The volumes were incubated overnight, then brought to a pH of 7.5 using 10 M NaOH and optical density was measured. The treatments of 10 mM H2O2 and 20 mM H2O2 were then added and incubated for 24 h. Optical density and pH were then measured, and methionine was added to one volume of each treatment. Optical density and pH were measured again on the third day and the sixth day before microscope analysis on the sixth day.
The bacteria cultures in glucose and sodium acetate were treated with 0 mM H2O2 (control), 1 mM H2O2, 2.5 mM H2O2, and 5 mM H2O2.

O=[O+][O-] [ozone]
percentage of bacteria to Chlorella after treatment (contaminating bacteria; after the treatment (ozone 0.10-0.20 mg/L for 17 h; antibiotic mix of Table 4)): 1.4%
percentage of bacteria to Chlorella before treatment (contaminating bacteria; before the treatment): 6.5%
average yield for the three days after the treatment (Chlorella sp. SNL333): 105 g/m^2 d

CC(=O)O [Acetic Acid, acetic acid]
Mixotrophic Chlorella Daily Productivity (Chlorella; Day 1, organic carbon source fed by pH-auxostat, 25° C., 24 hour photoperiod): 1.04 g/L day
Mixotrophic Chlorella Daily Productivity (Chlorella; Day 2): 1.21 g/L day
Mixotrophic Chlorella Daily Productivity (Chlorella; Day 3): 1.27 g/L day
Mixotrophic Chlorella Daily Productivity (Chlorella; Day 4): 1.97 g/L day
Mixotrophic Chlorella Daily Productivity (Chlorella; Day 5): 1.40 g/L day

OO [H2O2, hydrogen peroxide]
effect on growth of bacteria cultures (E. coli; 10 mM and 20 mM H2O2, glucose and acetate mediums, 20 mM greater effect than 10 mM): negatively affected the growth of bacteria cultures in both glucose and acetate mediums
inhibitory effect on growth of the bacteria versus H2O2 concentration (E. coli; 1, 2.5 and 5 mM H2O2, one time treatment, glucose and sodium acetate cultures, growth eventually recovers): inhibitory effect on the growth of the bacteria increased
